According to patent US20220241369A1, “COMPOSITIONS AND METHODS OF MODULATING INFLAMMATION” (La Jolla Institute for Allergy and Immunology, priority 2018, published 2022):
“Also recorded” adds a separate entry of the source.

Assays:
[1] = system: CMT-93 murine intestinal epithelial cells; assay: HRF secretion into culture supernatant, western blot, CMT-93; format: cell-based, mouse; settings: stimulated overnight, 20 or 100 ng/ml
Experimental: (§1) FIGS. 4A-4C show HRF is secreted by various cells. CMT-93 murine intestinal epithelial cells (FIG. 4A) and NIH/3T3 murine fibroblasts (FIG. 4B) and Raw264.7 murine macrophages (FIG. 4C) were stimulated overnight with low (20 ng/ml) and high (100 ng/mL) concentrations of various cytokines. HRF secreted into culture supernatants was detected by western blotting. Med and US denote medium only and supernatant from unstimulated cells, respectively. −DTT and +DTT indicate SDS gels were run under non-reducing and reducing conditions, respectively. Gel portions of containing the 23 kDa HRF monomer are shown except that a larger portion of the non-reducing gel is shown in panel C. Arrow indicates the position of HRF dimer, which disappeared under reducing conditions.
(§2) The following cell lines were cultured in DMEM plus 10% FCS except for U-937 cells which were cultured in RPMI1640 plus 10% FCS: CMT-93 mouse and Caco-2 (with 20% FCS) human intestinal epithelial cell lines; NIH/3T3 mouse fibroblast line; Raw 264.7 mouse and U-937 human macrophage lines; BEAS-2B human bronchial epithelial cell line; 293T human embryonic kidney cell line (obtained from ATCC, Manassas, Va., except for NIH/3T3, which was provided by S. A. Aaronson, NIH). Fibroblast-like stromal cells were cultured from small intestines of BALB/c mice in DMEM/10% FBS. CD4^+ T and B cells were purified from mouse spleens using BD IMag™ Mouse CD4 and B cells enrichment set-DM. Low-density bone-marrow cells were cultured in the presence of 100 ng/ml of stem cell factor (PeproTech) and 100 ng/ml of FLT-3 ligand (R&D Systems) for 4 days, and with 10 ng/mL of IL-5 (R&D Systems) thereafter for 10 days to obtain bone marrow-derived eosinophils (44). Bone marrow cells were cultured in the presence of 20 ng/ml of GM-CSF for 6 days and adherent cells were collected as bone marrow-derived macrophages. Non-adherent cells were further cultured with 5 ng/ml GM-CSF and the non-adherent cells were collected as bone marrow-derived dendritic cells. […]

[2] = system: Raw264.7 murine macrophages; assay: HRF secretion into culture supernatant, western blot, macrophages; format: cell-based, mouse; settings: stimulated overnight, 20 or 100 ng/ml
Experimental: as §1, §2

[3] = system: BEAS-2B human bronchial epithelial cells; assay: HRF secretion, western blot, BEAS-2B; format: cell-based; settings: combination of HDM and cytokine, 24 h
From the text: As lung epithelial cells are exposed to the environment, HRF secretion was studied using BEAS-2B human bronchial epithelial cells. A small amount of HRF was secreted constitutively, but house dust mite allergens induced the secretion of high-molecular-weight HRF species (HMW-HRFs). Various cytokines including epithelial derived cytokines as well as Th2 cytokines and proinflammatory cytokines further enhanced HDM-induced secretion of HMW-HRFs.
Cultured cells were scraped and treated with adenosine and ATP, which should be abundantly present in inflammatory or injured tissues. These conditions induced secretion of HRF monomer, dimer and HMW-HRFs like stimulation with HDM plus cytokines.
Culture supernatants were analyzed by SDS-PAGE under nonreducing (−DTT) and reducing (+DTT) conditions, followed by western blotting for HRF probing. HDM-induced HRF secretion was enhanced not only by Th2 cytokines (IL-4, IL-5, and IL-13), but also by epithelial derived cytokines (IL-25, IL-33, and TSLP) and proinflammatory cytokines (IL-1beta, IL-6 and TNF). med, medium alone; US, unstimulated; HDM, house dust mite; CR, cockroach; RW, ragweed; Af, Aspergillus fumigatus. Arrowhead, HRF monomer.

[4] = system: OVA-induced food allergy (allergic diarrhea); assay: IgE-mediated experimental food allergy, i.g. pretreatment with HRF inhibitor before each OVA challenge; format: in vivo, mouse
Experimental: FIGS. 1A-1I show GST-N19 inhibits the development of diarrhea and intestinal mastocytosis in murine food allergy. Mice were i.p. sensitized with OVA ([…]) plus alum on days 0 and 14. From day 28, mice were i.g. challenged with OVA (50 mg) three times a week. Sensitized mice were either non-pretreated (−) or i.g. pretreated with 100 μg of GST or GST-N19 (N19). (FIG. 1A) Procedure scheme. (FIG. 1B) The development of diarrhea was monitored for 90 min after each OVA challenge. (n=5 for non-sensitized group, n=3 for inhibitor non-pretreated group, n=4 for GST group, n=6 for N19 group, data are representative of at least 3 independent experiments) Log-rank test: p=0.028 (GST vs. GST-N19), p=0.036 (control vs. GST-N19). […] (FIG. 1C-FIG. 1E) Total IgE, IgG1, HRF, and HRF-reactive IgE and IgG in sera were measured by ELISA. (FIG. 1F) Serum mMCP-1 was also measured by ELISA. (FIG. 1G) Sections of jejunum were stained with chloroacetate esterase to identify mast cells. Sections indicated by rectangles are enlarged in lower rows. Bar=100 μm in large pictures and 50 μm in insets. (FIG. 1H) Flow cytometry was performed to enumerate MMC9s (Lin^−c-Kit^+ST2^+IL-17RB^−Integrin β7^lo) in jejunum. (n=14 for non-sensitized group, n=15 for inhibitor non-pretreated group, n=9 for GST group, n=9 for GST-N19 group, pooled data of 3 independent experiments) (FIG. 1I) Cytokine mRNAs in jejunum were quantified by qRT-PCR. *, **: p<0.05, p<0.01 by ANOVA with Tukey's multiple comparison.
Mice were i.p. sensitized with OVA (50 μg/mouse) plus alum on days 0 and 14. From day 28, mice were i.g. challenged with OVA (25 or 50 mg) or PBS (control) three times a week. Before each challenge, mice were starved for 3 h, then i.g. pretreated with GST, GST-N19 (100 μg/mouse), synthetic N19 peptide, or HRF-2CA. The development of diarrhea was monitored for 90 min after OVA challenge. Diarrhea severity (30) was based on states of stool: solid (score 0), funicular (score 1), slurry (score 2), and watery (score 3).
For histologic analysis, jejunal tissue was fixed in 10% formalin. Mast cells in jejunal sections were detected by chloroacetate esterase staining. IgE, IgG, IgG1, IgG2a, mMCP-1, HRF, HRF-reactive IgE, and HRF-reactive IgG 24 h after the last OVA challenge were measured by ELISA (see Supplemental Information). Cytokine mRNAs in jejunum were quantified by qRT-PCR.
Twenty-four hours after the last OVA challenge, mice were sacrificed and small intestines (0.5-15 cm from stomach) were collected. The intestinal tissues were opened longitudinally and washed with HBSS. The washed tissues were incubated with 5 mM EDTA-HBSS for 30 min at 4° C., transferred to 30 ml HBSS in 50 ml tubes, and vigorously shaken to remove intestinal epithelial cells. The tissues were then washed with 10 ml of 10% FCS RPMI medium. Tissues were cut into tiny pieces and incubated with 2.4 mg/ml Collagenase D and 0.2 mg/ml DNase for 30 min at 37° C. Then cells were washed, resuspended in 44% Percoll solution, and slowly loaded on the top of 67% Percoll solution. The cells were centrifuged (1800 rpm, 20 min) and lymphocyte fractions were collected and used for detection of MMC9s (Lin^−c-Kit^+ST2^+IL-17RB^−Integrin β7^lo).
The cells were first incubated with 2.4G2 for 15 min at 4° C. and further incubated with Abs (PE-anti-07 integrin mAb (clone FIB504), PerCP/Cy5.5-anti-CD4 mAb (clone RM4-5), PerCP/Cy5.5-anti-CD8 mAb (clone 53-6.7), PerCP/Cy5.5-anti-CD11b mAb (clone M1/70), PerCP/Cy5.5-anti-CD11c mAb (clone N418), PerCP/Cy5.5-anti-B220 mAb (RA3-6B2), PerCP/Cy5.5-anti-Ly-6G/Ly-6C mAb (clone RB6-8C5), PerCP/Cy5.5-anti-CD335 mAb (clone 29A1.4), AlexaFluor647-anti-IL-17RB (clone 9B10), APC/Cy7-anti-CD117 (clone 2B8), Biotin-anti-ST2 (clone DIH9)) (Biolegend) for 30 min at 4° C. After washed, the cells were incubated with SA-BV421 (Biolegend) for 30 min at 4° C. MMC9 population was identified using FACS Canto. Data were analyzed using FlowJo software.

[5] = system: sensitization phase of murine food allergy; assay: Pretreatment with HRF inhibitor before sensitization with OVA plus alum; format: in vivo, mouse; settings: 100 μg i.g. one day before i.p. immunization on days 0 and 14
Experimental: Mice were i.g. pretreated with 100 μg of GST, GST-N19, HRF-2CA or PBS (OVA) one day before i.p. immunization with OVA plus alum on days 0 and 14. From day 28, mice were i.g. challenged with OVA three times a week. (FIG. 9A) Procedure scheme. (FIG. 9B) The development of diarrhea was monitored after OVA challenge. (n=5 for OVA, n=4 for GST, n=5 for N19, n=5 for 2CA, and n=3 each for unsensitized pretreated groups (not shown)). (FIG. 9C, FIG. 9D) Total IgE and IgG1 were measured by ELISA.
Whether HRF inhibitors affect the sensitization phase of food allergy was tested.

[6] = system: IgE+ mMCP-1+ mast cells; assay: Localization of gavaged HRF inhibitors in jejunum by confocal microscopy; format: in vivo, mouse
Experimental: HRF multimers in the jejunum of non-sensitized/OVA challenged (Cont, n=6) or OVA-sensitized/OVA-challenged (OVA, n=5) mice were quantified by a newly developed ELISA (FIG. 3A, FIG. 3C). HRF was also measured by ELISA (FIG. 3B). HRF dimer and monomer were quantified by western blotting in control (Cont) and food allergic mice treated without (OVA) or with GST (GST) or GST-N19 (N19) (n=5 for each group) (FIG. 3D). Allergic diarrhea was induced by 6 challenges. On the day of 7th challenge, the mice were gavaged with 0.1 mg of GST or GST-N19 (FIG. 3E). One hour later, mice were sacrificed without OVA challenge. Jejunum tissues were stained for GST, IgE, and mMCP-1 before confocal microscopy (n=5 for GST and n=6 for GST-N19). Arrows indicate cells positive for GST or GST-N19 as well as IgE and mMCP-1. […] Bars=50 μm.
Jejunum biopsy was fixed in 4% paraformaldehyde at 4° C., washed in 10-20% sucrose in phosphate buffered saline, and embedded in O.C.T. compound (Sakura Finetek, Japan). Cyrosections were made in 6 μm and blocked with 2% skim milk. Immunostaining was performed with anti-HRF (rabbit polyclonal FL-172), anti-GST (rabbit polyclonal Z-5) (Santa Cruz Biotechnology), anti-IgE (clone RME-1 from Biolegend and clone R35-72 from BD Biosciences), anti-mMCP1 (Catalog #AF5146, R&D Systems), anti-CD45 (clone 30-F11), anti-CD63 (clone NVG-2) (Biolegend), and anti-Siglec F (clone E50-2440, BD Biosciences) as primary antibodies, and anti-Rabbit Alexa Fluor 647 (Catalog #A21245), anti-Rat Alexa Fluor 568 (Catalog #A11077), and anti-Sheep Alexa Fluor 555 (Catalog #A11015) (Thermo Fisher Scientific) as secondary antibodies. Coverslips were mounted with Prolong Gold with DAPI (Thermo Fisher Scientific) and fluorescence was observed under Leica TCS SP2 confocal microscopy (Leica) and Nuance Multi spectral Imaging System (PerkinElmer).
Applicant next tested whether HRF inhibitors target mucosal mast cells. To this end, mice with allergic diarrhea were i.g. gavaged with GST-N19 or GST, and their location was identified 1 h after their gavage.

[7] = target: anti-TNP IgE C38-2; assay: cell-based or functional assay
[8] = sensitized mice pretreated i.g. with 100 μg before each OVA challenge

IL-13: Th2 cytokine
HRF secretion [1]: strongly induced
HRF dimer ([2]; non-reducing gel): increased
HDM-induced HRF secretion [3]: enhanced

GST-N19: GST-tagged N-terminal 19 amino acids of HRF; HRF inhibitor
serum mMCP-1 level ([4]; i.g. pretreatment before each OVA challenge, ELISA): reduced
number of mucosal mast cells in jejunum (intestinal mastocytosis) ([4]; i.g. pretreatment before each OVA challenge, chloroacetate esterase staining): inhibits; also recorded: reduced
MMC9s in jejunum ([4]; i.g. pretreatment, flow cytometry): reduced
Th2 cytokine mRNAs (Il4 and Il13) in jejunum ([4]; i.g. pretreatment, qRT-PCR): repressed
levels of total IgE, IgG1, IgG2a or HRF-reactive IgE and IgG ([4]; i.g. pretreatment, serum ELISA): not reduced
diarrhea occurrence / incidence [4, 8]: inhibits; also recorded: reduced
onset of diarrhea [4, 8]: delayed
sensitization phase of murine food allergy [5]: do not affect
targeting of mast cells in jejunum ([6]; after i.g. gavage): preferentially targets
IgE+ mMCP-1+ mast cells co-localized with the substance ([6]; mice with allergic diarrhea, 1 h after i.g. gavage of 0.1 mg, anti-GST staining): about 65%

IL-6: proinflammatory cytokine
HRF secretion [1]: strongly induced
secretion of HRF monomer [2]: increased
HDM-induced HRF secretion [3]: enhanced

B1: recombinant dimeric murine HRF (HRF-His6, Sephacryl fraction Fr1) (ligand)
chain: MIIYRDLISHDELFSDIYKIREIADGLCLEVEGKMVSRTEGAIDDSLIGGNASAEGPEGEGTESTVVTGVDIVMNHHLQETSFTKEAYKKYIKDYMKSLKGKLEEQKPERVKPFMTGAAEQIKHILANFNNYQFFIGENMNPDGMVALLDYREDGVTPFMIFFKDGLEMEKCHHHHHH
modifications: disulfide bond Cys172-Cys172 between the two monomers
EC50 of antigen TNP3-BSA for IL-13 release from C38-2-sensitized mouse BMMCs in the presence of 25 µg/ml mHRF dimer (156 ng/ml for 0 µg/ml mHRF dimer) [7]: 0.124 µg/mL
EC50 of antigen TNP3-BSA for IL-13 release from C38-2-sensitized mouse BMMCs in the presence of 50 µg/ml mHRF dimer (156 ng/ml for 0 µg/ml mHRF dimer) [7]: 0.092 µg/mL
